Drawing on ChEMBL document CHEMBL3991601, “The target landscape of clinical kinase drugs” (Science, 2017), this text covers Kd for twelve molecules.

Calls of active or inactive are those of the source. For most assays here, no stated cut-off is given here; in the data, actives have a measured Kd and inactives only a lower limit.

Experiment [1] deals with Calcium/calmodulin-dependent protein kinase type II subunit gamma (Homo sapiens, UniProt Q13555).
In experiment [2] the target is T1, Discoidin domain-containing receptor 2 (Homo sapiens, UniProt Q16832).
T1 sequence (Q16832 whole entry): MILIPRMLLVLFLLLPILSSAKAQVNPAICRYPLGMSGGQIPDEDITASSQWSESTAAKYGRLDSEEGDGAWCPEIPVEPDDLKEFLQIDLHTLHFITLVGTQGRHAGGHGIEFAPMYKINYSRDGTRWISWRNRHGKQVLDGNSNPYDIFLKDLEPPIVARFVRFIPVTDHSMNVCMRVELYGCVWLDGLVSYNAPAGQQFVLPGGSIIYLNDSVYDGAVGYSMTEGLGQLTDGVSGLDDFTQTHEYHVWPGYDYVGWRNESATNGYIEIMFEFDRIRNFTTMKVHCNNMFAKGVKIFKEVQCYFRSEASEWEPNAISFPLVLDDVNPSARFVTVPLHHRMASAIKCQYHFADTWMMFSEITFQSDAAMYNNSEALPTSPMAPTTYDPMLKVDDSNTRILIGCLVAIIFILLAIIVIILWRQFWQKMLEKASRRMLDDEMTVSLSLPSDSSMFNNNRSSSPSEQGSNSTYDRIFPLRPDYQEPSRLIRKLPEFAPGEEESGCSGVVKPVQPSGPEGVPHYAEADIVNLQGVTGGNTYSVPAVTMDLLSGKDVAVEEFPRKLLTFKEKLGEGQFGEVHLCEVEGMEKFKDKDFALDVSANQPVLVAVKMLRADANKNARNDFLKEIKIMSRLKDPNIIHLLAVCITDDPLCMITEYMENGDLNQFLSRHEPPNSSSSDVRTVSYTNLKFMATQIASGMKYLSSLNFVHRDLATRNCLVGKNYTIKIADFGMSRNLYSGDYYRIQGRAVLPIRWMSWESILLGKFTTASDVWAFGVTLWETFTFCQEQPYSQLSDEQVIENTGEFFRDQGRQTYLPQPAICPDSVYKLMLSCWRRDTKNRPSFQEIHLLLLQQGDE

In experiment [3] the target is Tyrosine-protein kinase Lyn (Homo sapiens, UniProt P07948).
Experiment [4] deals with T2, Dual specificity mitogen-activated protein kinase kinase 6 (Homo sapiens, UniProt P52564).
T2 sequence (P52564 whole entry): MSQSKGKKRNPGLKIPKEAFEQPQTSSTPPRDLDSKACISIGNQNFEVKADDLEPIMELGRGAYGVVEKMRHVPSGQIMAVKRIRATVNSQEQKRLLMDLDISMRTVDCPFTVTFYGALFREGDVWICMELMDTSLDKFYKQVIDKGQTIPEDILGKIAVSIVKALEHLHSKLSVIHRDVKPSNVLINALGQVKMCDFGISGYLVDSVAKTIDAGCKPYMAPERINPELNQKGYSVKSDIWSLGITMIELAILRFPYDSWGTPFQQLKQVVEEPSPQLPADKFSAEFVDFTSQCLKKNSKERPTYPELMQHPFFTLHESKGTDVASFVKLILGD

The target in experiment [5] is Mitogen-activated protein kinase kinase kinase kinase 1 (Homo sapiens, UniProt Q92918).
For experiment [6], the target named is T3, Mitogen-activated protein kinase kinase kinase kinase 2 (Homo sapiens, UniProt Q12851).
T3 sequence (Q12851 whole entry): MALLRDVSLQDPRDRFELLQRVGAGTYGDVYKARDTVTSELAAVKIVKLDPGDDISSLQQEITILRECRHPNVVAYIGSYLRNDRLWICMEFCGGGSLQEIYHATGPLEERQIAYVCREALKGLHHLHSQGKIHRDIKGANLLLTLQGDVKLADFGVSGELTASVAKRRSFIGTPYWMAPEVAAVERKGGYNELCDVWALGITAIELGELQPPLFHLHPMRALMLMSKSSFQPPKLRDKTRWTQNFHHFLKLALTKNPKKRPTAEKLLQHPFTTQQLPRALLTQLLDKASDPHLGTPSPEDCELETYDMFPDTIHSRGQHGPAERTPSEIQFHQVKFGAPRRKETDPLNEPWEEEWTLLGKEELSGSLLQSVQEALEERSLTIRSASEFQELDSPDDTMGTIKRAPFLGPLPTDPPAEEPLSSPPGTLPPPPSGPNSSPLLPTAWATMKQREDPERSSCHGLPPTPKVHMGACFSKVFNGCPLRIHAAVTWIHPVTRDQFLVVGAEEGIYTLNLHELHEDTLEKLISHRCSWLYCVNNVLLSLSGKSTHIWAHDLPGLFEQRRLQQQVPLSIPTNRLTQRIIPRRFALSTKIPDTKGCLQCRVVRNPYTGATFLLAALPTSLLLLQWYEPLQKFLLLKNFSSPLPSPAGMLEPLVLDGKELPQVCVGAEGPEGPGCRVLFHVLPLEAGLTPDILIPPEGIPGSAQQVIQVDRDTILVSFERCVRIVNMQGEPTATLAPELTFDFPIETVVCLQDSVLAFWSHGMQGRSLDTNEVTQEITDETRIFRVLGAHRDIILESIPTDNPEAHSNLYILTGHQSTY

In experiment [7] the target is Ribosomal protein S6 kinase alpha-6 (Homo sapiens, UniProt Q9UK32).
Experiment [8] concerns the target Serine/threonine-protein kinase 26 (Homo sapiens, UniProt Q9P289).
Experiment [9] has as its target T4, EKC/KEOPS complex subunit TP53RK (Homo sapiens, UniProt Q96S44).
T4 sequence (Q96S44 whole entry): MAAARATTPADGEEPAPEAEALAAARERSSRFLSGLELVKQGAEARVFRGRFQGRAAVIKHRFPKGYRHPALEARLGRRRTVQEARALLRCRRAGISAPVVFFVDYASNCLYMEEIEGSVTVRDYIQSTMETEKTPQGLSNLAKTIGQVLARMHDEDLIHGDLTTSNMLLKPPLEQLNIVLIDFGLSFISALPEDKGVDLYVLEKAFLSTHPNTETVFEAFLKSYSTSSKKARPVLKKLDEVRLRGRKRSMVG

Mitogen-activated protein kinase kinase kinase kinase 1, sequence (Q92918 whole entry): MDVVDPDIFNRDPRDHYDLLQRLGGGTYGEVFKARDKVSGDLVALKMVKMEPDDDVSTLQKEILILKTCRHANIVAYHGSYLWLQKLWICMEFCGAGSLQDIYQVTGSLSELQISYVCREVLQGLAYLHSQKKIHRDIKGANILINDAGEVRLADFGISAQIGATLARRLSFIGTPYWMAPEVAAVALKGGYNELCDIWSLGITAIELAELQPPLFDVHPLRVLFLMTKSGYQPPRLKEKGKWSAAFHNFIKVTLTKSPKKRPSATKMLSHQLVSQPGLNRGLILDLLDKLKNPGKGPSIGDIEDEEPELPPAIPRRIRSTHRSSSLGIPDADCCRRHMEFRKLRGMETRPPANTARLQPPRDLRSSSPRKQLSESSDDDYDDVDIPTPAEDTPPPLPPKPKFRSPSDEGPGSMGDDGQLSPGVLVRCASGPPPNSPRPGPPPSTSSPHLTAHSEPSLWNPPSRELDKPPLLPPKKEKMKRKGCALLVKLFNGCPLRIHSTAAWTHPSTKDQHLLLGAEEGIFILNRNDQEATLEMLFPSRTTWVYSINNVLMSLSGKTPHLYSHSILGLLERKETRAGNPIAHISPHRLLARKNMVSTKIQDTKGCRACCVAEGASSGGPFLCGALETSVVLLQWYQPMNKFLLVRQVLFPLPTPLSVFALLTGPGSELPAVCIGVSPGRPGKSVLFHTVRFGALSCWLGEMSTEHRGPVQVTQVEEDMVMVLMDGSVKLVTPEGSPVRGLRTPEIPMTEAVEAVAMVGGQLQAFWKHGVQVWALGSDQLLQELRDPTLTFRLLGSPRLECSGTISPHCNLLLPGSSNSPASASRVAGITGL
Ribosomal protein S6 kinase alpha-6, sequence (Q9UK32 whole entry): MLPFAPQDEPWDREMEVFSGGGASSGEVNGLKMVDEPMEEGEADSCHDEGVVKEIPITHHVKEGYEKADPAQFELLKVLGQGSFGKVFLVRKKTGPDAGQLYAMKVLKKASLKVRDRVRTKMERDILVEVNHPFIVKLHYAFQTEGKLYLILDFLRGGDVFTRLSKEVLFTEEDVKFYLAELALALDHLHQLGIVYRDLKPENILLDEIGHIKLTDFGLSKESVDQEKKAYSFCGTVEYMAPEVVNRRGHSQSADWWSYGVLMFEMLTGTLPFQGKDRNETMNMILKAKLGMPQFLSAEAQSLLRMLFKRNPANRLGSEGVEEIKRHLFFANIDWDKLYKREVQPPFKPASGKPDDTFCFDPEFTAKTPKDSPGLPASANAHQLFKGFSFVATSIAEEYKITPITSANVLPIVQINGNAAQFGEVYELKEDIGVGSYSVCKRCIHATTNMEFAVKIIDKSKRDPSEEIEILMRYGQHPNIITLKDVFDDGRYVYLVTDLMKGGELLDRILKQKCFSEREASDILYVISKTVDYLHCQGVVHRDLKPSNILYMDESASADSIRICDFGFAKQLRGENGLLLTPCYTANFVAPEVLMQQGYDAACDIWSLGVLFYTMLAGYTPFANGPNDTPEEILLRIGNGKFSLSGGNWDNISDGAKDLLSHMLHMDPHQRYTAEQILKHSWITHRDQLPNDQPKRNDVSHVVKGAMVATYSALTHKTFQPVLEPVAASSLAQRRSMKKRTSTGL
Tyrosine-protein kinase Lyn, sequence (P07948 whole entry): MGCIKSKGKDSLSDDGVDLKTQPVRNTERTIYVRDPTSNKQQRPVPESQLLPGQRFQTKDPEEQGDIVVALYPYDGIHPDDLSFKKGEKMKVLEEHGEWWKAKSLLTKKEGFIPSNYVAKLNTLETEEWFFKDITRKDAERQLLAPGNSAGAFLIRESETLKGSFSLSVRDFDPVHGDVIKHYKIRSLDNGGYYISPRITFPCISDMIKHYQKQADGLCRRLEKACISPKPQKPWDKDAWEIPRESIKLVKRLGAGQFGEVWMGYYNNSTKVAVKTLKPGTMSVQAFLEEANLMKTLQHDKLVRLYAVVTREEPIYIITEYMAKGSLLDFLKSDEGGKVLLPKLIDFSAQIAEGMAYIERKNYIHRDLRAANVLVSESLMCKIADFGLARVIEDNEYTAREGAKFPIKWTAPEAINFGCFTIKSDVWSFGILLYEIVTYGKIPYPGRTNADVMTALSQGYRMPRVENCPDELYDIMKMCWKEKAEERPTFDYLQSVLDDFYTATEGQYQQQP
Serine/threonine-protein kinase 26, sequence (Q9P289 whole entry): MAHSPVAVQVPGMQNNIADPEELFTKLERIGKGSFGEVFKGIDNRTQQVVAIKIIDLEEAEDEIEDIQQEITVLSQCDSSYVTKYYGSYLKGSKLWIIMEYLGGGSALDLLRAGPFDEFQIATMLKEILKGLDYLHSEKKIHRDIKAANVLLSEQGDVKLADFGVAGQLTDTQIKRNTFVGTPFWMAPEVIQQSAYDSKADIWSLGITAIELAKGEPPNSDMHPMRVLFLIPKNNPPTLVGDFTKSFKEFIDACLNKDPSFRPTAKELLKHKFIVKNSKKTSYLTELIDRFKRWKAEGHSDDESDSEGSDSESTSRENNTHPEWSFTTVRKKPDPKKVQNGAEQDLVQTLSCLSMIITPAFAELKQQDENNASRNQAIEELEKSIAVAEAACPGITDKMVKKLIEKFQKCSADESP
Calcium/calmodulin-dependent protein kinase type II subunit gamma, sequence (Q13555 whole entry, the tested form may be a part): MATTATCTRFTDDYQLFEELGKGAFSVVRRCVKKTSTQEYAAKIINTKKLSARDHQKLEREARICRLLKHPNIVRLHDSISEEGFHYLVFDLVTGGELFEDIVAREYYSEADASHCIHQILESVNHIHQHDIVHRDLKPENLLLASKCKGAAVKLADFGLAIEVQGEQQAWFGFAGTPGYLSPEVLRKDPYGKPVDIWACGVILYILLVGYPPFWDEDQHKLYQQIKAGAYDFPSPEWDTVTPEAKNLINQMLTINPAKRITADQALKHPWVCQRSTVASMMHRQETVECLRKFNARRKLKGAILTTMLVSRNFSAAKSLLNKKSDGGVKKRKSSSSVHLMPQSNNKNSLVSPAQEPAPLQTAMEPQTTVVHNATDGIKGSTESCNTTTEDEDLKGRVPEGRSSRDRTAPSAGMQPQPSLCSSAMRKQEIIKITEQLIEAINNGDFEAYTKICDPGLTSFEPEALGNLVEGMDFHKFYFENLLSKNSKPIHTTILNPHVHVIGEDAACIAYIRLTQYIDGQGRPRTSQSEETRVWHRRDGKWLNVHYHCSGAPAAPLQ

With `C=CCN(/C=C1/C(=O)O[C@H](COC)[C@@]2(C)C1=C(O)C(=O)C1=C2[C@H](OC(C)=O)C[C@]2(C)C(=O)CC[C@@H]12)CC=C` [SONOLISIB], the Kd in experiment [1], in experiment [2], in experiment [3], in experiment [4], in experiment [5] and in experiment [6] was > 30 µM (inactive) throughout. For the same molecule, the Kd in experiment [7], in experiment [8] and in experiment [9] was > 30 µM (inactive) throughout.

Turning to `COc1cccc2cc(-c3nc([C@H]4CC[C@H](C(=O)O)CC4)n4ncnc(N)c34)[nH]c12` [OSI-027], the Kd in [1], in experiment [2], in experiment [3], in [4], in experiment [5] and in [6] was > 30 µM (inactive) each time. Besides, the Kd in experiment [7], in experiment [8] and in [9] was > 30 µM (inactive) each time.

Turning to `O=c1[nH]c([C@@H]2CCCN2)nc2c1oc1ccc(Cl)cc12`, the Kd in experiment [1], in experiment [2], in [3], in experiment [4], in [5] and in [6] was > 30 µM (inactive) in each case. The Kd in experiment [7], in experiment [8] and in experiment [9] was > 30 µM (inactive) in each case.

As to `CCN1CCN(Cc2ccc(Nc3ncc(F)c(-c4cc(F)c5nc(C)n(C(C)C)c5c4)n3)nc2)CC1` [ABEMACICLIB], the Kd was 0.018 µM (active) in experiment [1]; > 30 µM (inactive) in experiment [2]; > 30 µM (inactive) in experiment [3]; > 30 µM (inactive) in experiment [4]; > 30 µM (inactive) in experiment [5]; > 30 µM (inactive) in experiment [6]. Further, the Kd in [7], in experiment [8] and in [9] was > 30 µM (inactive) throughout.

As for `COc1ccc(-c2ccc3ncc4c(c3c2)n(-c2ccc(N3CCNCC3)c(C(F)(F)F)c2)c(=O)n4C)cn1` [BGT-226 FREE BASE], the Kd in experiment [1], in experiment [2], in experiment [3], in [4], in experiment [5] and in experiment [6] was > 30 µM (inactive) throughout. Also, the Kd is > 30 µM (inactive) in [7], > 30 µM (inactive) in experiment [8] and 1.01 µM (active) in experiment [9].

On to `CNC(=O)c1ccc(Nc2ncc(C(F)(F)F)c(NCc3nccnc3N(C)S(C)(=O)=O)n2)cc1` [DEFACTINIB], for which the Kd in [1] was > 30 µM (inactive); in [2], > 30 µM (inactive); in experiment [3], > 30 µM (inactive); in experiment [4], > 30 µM (inactive); in experiment [5], 3.13 µM (active); in experiment [6] it was > 30 µM (inactive). Moreover, the Kd in experiment [7], in experiment [8] and in [9] was > 30 µM (inactive) in each case.

On to `Cc1c(Cn2c(C)nc3c(C(=O)O)cc(N4CCOCC4)cc32)cccc1C(F)(F)F` [GSK-2636771], for which the Kd in [1], in experiment [2], in [3], in experiment [4], in [5] and in [6] was > 30 µM (inactive) each time. Also, the Kd in [7], in experiment [8] and in [9] was > 30 µM (inactive) each time.

Take `Cc1cc(C(=O)Nc2cc(Oc3ccc4nc(NC(=O)C5CC5)cn4n3)ccc2C)n(C)n1` [TAK-593]: the Kd in experiment [1] was > 30 µM (inactive); in [2] it was 19.3 µM (active); in [3], > 30 µM (inactive); in experiment [4], > 30 µM (inactive); in experiment [5] it was > 30 µM (inactive); in experiment [6], > 30 µM (inactive). Further, the Kd in experiment [7], in experiment [8] and in experiment [9] was > 30 µM (inactive) each time.

Take `Cn1cc(-c2[nH]c3cc(NC(=O)[C@H](N)C4CCCCC4)cc4c3c2C=NNC4=O)cn1`: the Kd is > 30 µM (inactive) in experiment [1]; > 30 µM (inactive) in [2]; 0.331 µM (active) in [3]; > 30 µM (inactive) in experiment [4]; > 30 µM (inactive) in experiment [5]; > 30 µM (inactive) in experiment [6]. Further, the figures for the equilibrium dissociation constant (Kd) in [7], in experiment [8] and in experiment [9] were 2.38 µM (active), > 30 µM (inactive) and > 30 µM (inactive), respectively.

In the case of `C[C@@H]1COC(Nc2ccc3ncnc(Nc4ccc(OCc5nccs5)c(Cl)c4)c3c2)=N1` [VARLITINIB], the Kd in experiment [1], in experiment [2], in [3], in experiment [4], in experiment [5] and in [6] was > 30 µM (inactive) each time. The Kd in experiment [7], in experiment [8] and in experiment [9] was > 30 µM (inactive) in each case.

With `CCc1cc2c(cc1N1CCC(N3CCOCC3)CC1)C(C)(C)c1[nH]c3cc(C#N)ccc3c1C2=O` [ALECTINIB], the Kd in experiment [1], in [2], in [3], in [4], in [5] and in experiment [6] was > 30 µM (inactive) in each case. Further, the Kd in experiment [7], in experiment [8] and in [9] was > 30 µM (inactive) each time.

In the case of `C#Cc1cccc(Nc2ncnc3cc4c(cc23)OCCOCCOCCO4)c1` [ICOTINIB], the Kd in experiment [1], in [2], in [3], in experiment [4], in [5] and in experiment [6] was > 30 µM (inactive) in each case. In addition, the Kd in experiment [7], in experiment [8] and in experiment [9] was > 30 µM (inactive) throughout.

Broadly, the Kd is the concentration at which binding is half-saturated.
